Measured values from patent publication US20250320228A1, “PYRIDO[3,2-D]PYRIMIDINES AS HPK1 INHIBITORS” (Merck Patent GmbH, priority 2022, published 2025).
pIC50: −log10 of the molar value. Counter-ions that a name gives are not always drawn. Like-named read-outs stand apart in the source and are kept apart here.

Tests used:
HPK1 pSLP76 (Ser376) = assay: Cellular assay phospho-SLP-76 (Ser376); assay type: cell-based, human; conditions: read-out: HPK1 pSLP76 IC50
Experimental: Cellular Assay—Phospho-SLP-76 (Ser376).
Inhibition of HPK1 enzymatic activity in cells was determined by detection of SLP76 phosphorylation at Ser376 residue in lysate from Jurkat (human) and EL-4 (mouse) cells. Jurkat and EL-4 cells express both HPK1 and SLP76 naturally. All cells were cultured in RPMI 1640 media containing 10% heat inactivated fetal bovine serum (FBS) and 1× Penicillin-Streptomycin. In either Jurkat or El-4 assay, cells were pre-incubated with test compounds prior to T cell stimulation by respective αCD3/αCD28 Dynabeads™. For detection, plates were read on the Envision and percent inhibition and IC50 were determined by Smart fit in Genedata Analyzer.
For Jurkat cells: 35 μL cell suspension were dispensed at a density of 30,000 cells/well in 384-well plates containing HBSS (Gibco, 14025076)+0.1% BSA). 10-point logarithmic serial dilution of test compounds in DMSO were prepared by a Hamilton automated liquid handling robot and 35 nL was transferred into each well by an Echo liquid handler. After 60 min. pre-incubation, the cells were stimulated by adding 5 μL human T activator αCD3/αCD28 Dynabeads™ (Gibco, 11132D) at 1.2×107 beads/ml for 15 minutes at 37° C. Detection of Ser376 phosphorylation status was accomplished by first adding 10 μL of 5× AlphaLISA lysis buffer (Perkin Elmer, ALSU-PSLP-A500) to each well of the cell plate using a Multidrop Combi (5840300), followed by 20 minutes shaking. 10 μL cell lysate from each treatment were then transferred to a white 384-well plate (Corning 3572) and incubated with AlphaLISA acceptor beads for one hour (AlphaLISA SureFire Ultra p-SLP76 (Ser376), Perkin Elmer, ALSU-PSLP-A500), and donor beads for additional 2 hours at room temperature in the dark. […]

[1] = molecular target: full-length human HPK1 (MAP4K1) (Homo sapiens (Human), UniProt Q92918); assay: HPK1 kinase assay (biochemical, ADP-Glo); conditions: read-out: HPK1 enzymatic IC50
Description: HPK1 kinase assay (Biochemical assay).
A recombinant fusion protein consisting of full-length human HPK1 (MAP4K1) with an N-terminal Glutatione S-transferase (GST) tag was produced in insect cells Sf21 using the baculovirus expression system. GST-HPK1 protein was purified from cell lysates by glutathione Sepharose affinity chromatography. The assay is run in three continuous steps: 1) the HPK1 enzymatic kinase reaction, 2) an ATP depletion, and 3) the ADP detection, the steps 2 and 3 are performed with ADP-Glo™ Kinase Assay kit from Promega (V9101). Test compounds were prepared by 10-point serial dilution in dimethyl sulfoxide (DMSO) and 100 nL of each dilution was spotted onto a 384-well Optiplate (Perkin Elmer and Cat #6007299) by Labcyte Echo. 5 μL kinase reaction buffer (0.02% Brij-35, 2 mM DTT, 50 mM HEPES pH 7.5, MgCl2 10 mM, BSA 0.01% and β-glycerophosphate 12.5 mM) containing HPK1 (3.2 nM) enzyme was transferred to each well and incubated for 15 minutes at room temperature at 60% humidity. The enzymatic reaction was started by adding 5 μl of Start-Mix (10 μM ATP and 3.235 μM MBP). After 120 minutes, the reaction was stopped by adding 5 μL of ADP-Glo reagent (Promega, V9101) and incubating for 40 min. in the dark at 23° C. To determine the level of ADP, 10 μl ADP-Glo Detection solution was added and incubated for 1 hour at 23° C. in the dark. The plate was transferred to a Perkin Elmer EnVision (2104 Multilabel Reader) for luminescence detection and percent inhibition activity and IC50 value were determined using Genedata Screener.

[2] = SLP76 Ser376 phosphorylation after αCD3/αCD28 stimulation, Jurkat (human) or EL-4 (mouse) cells, table does not say which
[3] = GST-HPK1 3.2 nM, 10 μM ATP, MBP substrate, ADP-Glo

full-length human HPK1 (MAP4K1), sequence (Q92918 whole entry): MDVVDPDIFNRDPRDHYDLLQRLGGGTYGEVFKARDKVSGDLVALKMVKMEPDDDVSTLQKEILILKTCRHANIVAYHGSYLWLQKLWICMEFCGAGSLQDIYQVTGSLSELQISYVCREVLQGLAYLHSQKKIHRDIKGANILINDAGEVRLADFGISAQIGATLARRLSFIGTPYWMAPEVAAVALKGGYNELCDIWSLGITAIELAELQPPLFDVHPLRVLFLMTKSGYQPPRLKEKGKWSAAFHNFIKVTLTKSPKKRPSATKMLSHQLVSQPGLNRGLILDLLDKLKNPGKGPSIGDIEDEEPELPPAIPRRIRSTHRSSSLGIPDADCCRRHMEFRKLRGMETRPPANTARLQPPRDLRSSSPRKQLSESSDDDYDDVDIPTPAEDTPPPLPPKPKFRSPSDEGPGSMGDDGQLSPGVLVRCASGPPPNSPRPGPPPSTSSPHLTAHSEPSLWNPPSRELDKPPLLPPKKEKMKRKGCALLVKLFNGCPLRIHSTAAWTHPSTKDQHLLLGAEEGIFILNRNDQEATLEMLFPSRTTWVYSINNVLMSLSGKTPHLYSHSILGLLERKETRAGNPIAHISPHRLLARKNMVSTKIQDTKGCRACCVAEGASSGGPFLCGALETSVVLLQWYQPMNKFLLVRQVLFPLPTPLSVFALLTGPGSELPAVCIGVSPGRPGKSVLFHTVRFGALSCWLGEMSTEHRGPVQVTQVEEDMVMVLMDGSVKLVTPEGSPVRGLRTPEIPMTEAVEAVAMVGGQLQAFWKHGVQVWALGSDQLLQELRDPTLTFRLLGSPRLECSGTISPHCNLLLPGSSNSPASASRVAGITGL

SMILES | pIC50 (HPK1 pSLP76 (Ser376); [2]) | pIC50 [1, 3] | pIC50 (HPK1 pSLP76 (Ser376); Homo sapiens, Jurkat) | pIC50 [1]
CCn1ncc(-c2cc(C(N)=O)c3ncnc(N[C@@H]4CNC[C@@H](F)C4)c3n2)c1C [Example 8, 6-(1-ethyl-5-methyl-1H-pyrazol-4-yl)-4-(((3S,5S)-5-fluoropiperidin-3-yl)amino)pyrido[3,2-d]pyrimidine-8-carboxamide] | > 6.30 | > 7.00 |  | 
NC(=O)c1cc(-c2ccc(OCC3(O)CC3)cc2)nc2c(N[C@@H]3CNCCC3(F)F)ncnc12 [Example 16, (R)-4-((4,4-difluoropiperidin-3-yl)amino)-6-(4-((1-hydroxycyclopropyl)methoxy)phenyl)pyrido[3,2-d]pyrimidine-8-carboxamide] | > 6.30 | > 7.00 |  | 
NC(=O)c1cc(-c2ccc(CN3CCOCC3)cc2)nc2c(N[C@@]3(c4ccccc4)CCCNC3)ncnc12 [Example 18] | < 6.00 | 6.00 to 7.00 |  | 
COCCOc1ccc(-c2cc(C(N)=O)c3ncnc(N[C@H]4CCCNC4)c3n2)cc1 [Example 24, (S)-6-(4-(2-methoxyethoxy)phenyl)-4-(piperidin-3-ylamino) pyrido[3,2-d]pyrimidine-8-carboxamide] | > 6.30 | > 7.00 |  | 
C[C@H]1CN(Cc2ccc(-c3cc(C(N)=O)c4ncnc(N[C@H]5CCCNC5)c4n3)cc2)CCO1 [Example 27, 6-(4-[[(2S)-2-methylmorpholin-4-yl]methyl]phenyl)-4-[(3S)-piperidin-3-ylamino]pyrido [3,2-d]pyrimidine-8 carboxamide dihydrochloride] | > 6.30 | > 7.00 |  | 
C[C@@H]1COC[C@H](C)N1Cc1ccc(-c2cc(C(N)=O)c3ncnc(N[C@@H]4CNCCC4(F)F)c3n2)cc1 [Example 29, 4-[[(3R)-4,4-difluoropiperidin-3-yl]amino]-6-(4-[[(3R,5S)-3,5-dimethylmorpholin-4-yl]methyl]phenyl)pyrido[3,2-d]pyrimidine-8-carboxamide] | < 6.00 | > 7.00 |  | 
NC(=O)c1cc(-c2cc(F)c(OCC3(O)CCC3)c(F)c2)nc2c(N[C@@H]3CNC[C@@H](F)C3)ncnc12 [Example 33, 6-(3,5-difluoro-4-((1-hydroxycyclobutyl)methoxy)phenyl)-4-(((3S,5S)-5-fluoropiperidin-3-yl)amino)pyrido[3,2-d]pyrimidine-8-carboxamide] | > 6.30 | > 7.00 |  | 
NC(=O)c1cc(-c2ccc(OCC3(O)CC3)cc2)nc2c(N[C@@H]3CNC[C@@H](F)C3)ncnc12 [Example 34, 4-(((3S,5S)-5-fluoropiperidin-3-yl)amino)-6-(4-((1-hydroxycyclopropyl)methoxy)phenyl)pyrido[3,2-d]pyrimidine-8-carboxamide] |  |  | > 6.30 | > 7.00
NC(=O)c1cc(-c2ccc(OCC3(O)CCCC3)cc2)nc2c(N[C@@H]3CNC[C@@H](F)C3)ncnc12 [Example 35, 4-(((3S,5S)-5-fluoropiperidin-3-yl)amino)-6-(4-((1-hydroxycyclopentyl)methoxy)phenyl)pyrido[3,2-d]pyrimidine-8-carboxamide] | 6.00 to 6.30 | > 7.00 |  | 
NC(=O)c1cc(-c2cnn(C3CC3)c2)nc2c(N[C@@H]3CNC[C@@H](F)C3)ncnc12 [Example 36, 6-(1-cyclopropyl-1H-pyrazol-4-yl)-4-(((3S,5S)-5-fluoropiperidin-3-yl)amino)pyrido[3,2-d]pyrimidine-8-carboxamide] | 6.00 to 6.30 | > 7.00 |  | 
CC(C)(O)COc1ccc(-c2cc(C(N)=O)c3ncnc(N[C@@H]4CNCC[C@@H]4F)c3n2)cc1 [Example 38, 4-(((3R,4S)-4-fluoropiperidin-3-yl)amino)-6-(4-(2-hydroxy-2-methylpropoxy)phenyl)pyrido[3,2-d]pyrimidine-8-carboxamide] | > 6.30 | > 7.00 |  | 
CC(O)(C#N)COc1ccc(-c2cc(C(N)=O)c3ncnc(N[C@H]4CCCNC4)c3n2)cc1 (stereo partly drawn) [Example 40, 6-(4-(2-cyano-2-hydroxypropoxy)phenyl)-4-(((S)-piperidin-3-yl)amino)pyrido[3,2-d]pyrimidine-8-carboxamide] | < 6.00 | > 7.00 |  | 
CC(C)(O)COc1ccc(-c2cc(C(N)=O)c3ncnc(N[C@@H]4CNCC[C@H]4F)c3n2)cc1 [Example 42, 4-(((3R,4R)-4-fluoropiperidin-3-yl)amino)-6-(4-(2-hydroxy-2-methylpropoxy)phenyl)pyrido[3,2-d]pyrimidine-8-carboxamide] | > 6.30 | > 7.00 |  | 

The next lines start with results.

pIC50 (HPK1 pSLP76 (Ser376); [2]) | pIC50 [1, 3] | SMILES | pIC50 (HPK1 pSLP76 (Ser376); Homo sapiens, Jurkat) | pIC50 [1]
> 6.30 | > 7.00 | CCn1cc(-c2cc(C(N)=O)c3ncnc(N[C@@H]4CNC[C@@H](F)C4)c3n2)c(C)n1 [Example 9, 6-(1-ethyl-3-methyl-1H-pyrazol-4-yl)-4-(((3S,5S)-5-fluoropiperidin-3-yl)amino)pyrido[3,2-d]pyrimidine-8-carboxamide] |  | 
> 6.30 | > 7.00 | CC(C)(O)COc1ccc(-c2cc(C(N)=O)c3ncnc(N[C@@H]4CNC[C@@H](F)C4)c3n2)cc1 [Example 12, 4-(((3S,5S)-5-fluoropiperidin-3-yl)amino)-6-(4-(2-hydroxy-2-methylpropoxy)phenyl)pyrido[3,2-d]pyrimidine-8-carboxamide] |  | 
6.00 to 6.30 | > 7.00 | NC(=O)c1cc(C2=CCC(N3CCOCC3)CC2)nc2c(N[C@H]3CCCNC3)ncnc12 (stereo partly drawn) [Example 17, 6-(4-morpholinocyclohex-1-en-1-yl)-4-(((S)-piperidin-3-yl)amino)pyrido[3,2-d]pyrimidine-8-carboxamide] |  | 
> 6.30 | > 7.00 | NC(=O)c1cc(-c2ccc(C3(N4CCOCC4)CC3)cc2)nc2c(N[C@H]3CCCNC3)ncnc12 [Example 28, 6-[4-[1-(morpholin-4-yl)cyclopropyl]phenyl]-4-[(3S)-piperidin-3-ylamino]pyrido [3,2-d]pyrimidine-8-carboxamide] |  | 
> 6.30 | > 7.00 | NC(=O)c1cc(-c2ccc(CN3CCOCC3)cc2)nc2c(N[C@H]3CCCNC3)ncnc12 [Example 30, 6-[4-(morpholin-4-ylmethyl)phenyl]-4-[(3S)-piperidin-3-ylamino]pyrido[3,2-d]pyrimidine-8-carboxamide] |  | 
6.00 to 6.30 | > 7.00 | NC(=O)c1cc(-c2ccc(OC(F)(F)F)cc2)nc2c(N[C@H]3CCCNC3)ncnc12 [Example 31, 4-[(3S)-piperidin-3-ylamino]-6-[4-(trifluoromethoxy)phenyl]pyrido[3,2-d]pyrimidine-8-carboxamide] |  | 
< 6.00 | > 7.00 | NC(=O)c1cc(-c2ccc(N3CCC(O)C3)nc2)nc2c(N[C@@H]3CNC[C@@H](F)C3)ncnc12 (stereo partly drawn) [Example 32, 4-(((3S,5S)-5-fluoropiperidin-3-yl)amino)-6-(6-(3-hydroxypyrrolidin-1-yl)pyridin-3-yl)pyrido[3,2-d]pyrimidine-8-carboxamide] |  | 
> 6.30 | > 7.00 | NC(=O)c1cc(-c2cc(F)c(OCC3(O)CCOCC3)c(F)c2)nc2c(N[C@@H]3CNC[C@@H](F)C3)ncnc12 [Example 37, 6-(3,5-difluoro-4-((4-hydroxytetrahydro-2H-pyran-4-yl)methoxy)phenyl)-4-(((3S,5S)-5-fluoropiperidin-3-yl)amino)pyrido[3,2-d]pyrimidine-8-carboxamide] |  | 
> 6.30 | > 7.00 | NC(=O)c1cc(-c2ccc(OCC3(O)CCCC3)cc2)nc2c(N[C@H]3CCCNC3)ncnc12 [Example 41, (S)-6-(4-((1-hydroxycyclopentyl)methoxy)phenyl)-4-(piperidin-3-ylamino)pyrido[3,2-d]pyrimidine-8-carboxamide] |  | 
